According to PubChem BioAssay (NCI):
Values joined by “and” are separate entries in the source; they are usually repeats but may differ in a detail not shown here. Equal entries are not always repeated.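 Growth conditions: 96-well plates. Treatment: test compound, 48 hours, 5 concentrations. Analysis: linear interpolation between bracketing concentrations; unreached endpoints set to highest concentration. The concentration for 50% growth inhibition is given as GI50. At the TGI there is no net growth.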

Experiments:
Experiment in all cases: inhibition of tumour cell growth, NCI panel, 48 h
786-0 renal = test system: 786-0 renal
A498 renal = test system: A498 renal
A549 NSCLC = test system: A549 NSCLC
ACHN renal = test system: ACHN renal
BT-549 breast = test system: BT-549 breast
CAKI-1 renal = test system: CAKI-1 renal
CCRF-CEM leukemia = test system: CCRF-CEM leukemia
COLO 205 colon = test system: COLO 205 colon
DU-145 prostate = test system: DU-145 prostate
EKVX NSCLC = test system: EKVX NSCLC
HCC-2998 colon = test system: HCC-2998 colon
HCT-116 colon = test system: HCT-116 colon
HCT-15 colon = test system: HCT-15 colon
HL-60(TB) leukemia = test system: HL-60(TB) leukemia
HOP-62 NSCLC = test system: HOP-62 NSCLC
HOP-92 NSCLC = test system: HOP-92 NSCLC
HS 578T breast = test system: HS 578T breast
HT29 colon = test system: HT29 colon
IGROV1 ovarian = test system: IGROV1 ovarian
K-562 leukemia = test system: K-562 leukemia
KM12 colon = test system: KM12 colon
LOX IMVI melanoma = test system: LOX IMVI melanoma
M14 melanoma = test system: M14 melanoma
MALME-3M melanoma = test system: MALME-3M melanoma
MCF7 breast = test system: MCF7 breast
MDA-MB-231 breast = test system: MDA-MB-231 breast
MDA-MB-435 = test system: MDA-MB-435
MDA-N = test system: MDA-N
MOLT-4 leukemia = test system: MOLT-4 leukemia
NCI-H226 lung = test system: NCI-H226 lung
NCI-H23 lung = test system: NCI-H23 lung
NCI-H460 lung = test system: NCI-H460 lung
NCI-H522 lung = test system: NCI-H522 lung
NCI/ADR-RES ovarian = test system: NCI/ADR-RES ovarian
OVCAR-3 ovarian = test system: OVCAR-3 ovarian
OVCAR-4 ovarian = test system: OVCAR-4 ovarian
OVCAR-5 ovarian = test system: OVCAR-5 ovarian
OVCAR-8 ovarian = test system: OVCAR-8 ovarian
PC-3 prostate = test system: PC-3 prostate
RXF 393 renal = test system: RXF 393 renal
SF-268 CNS = test system: SF-268 CNS
SF-295 CNS = test system: SF-295 CNS
SF-539 CNS = test system: SF-539 CNS
SK-MEL-2 melanoma = test system: SK-MEL-2 melanoma
SK-MEL-28 melanoma = test system: SK-MEL-28 melanoma
SK-MEL-5 melanoma = test system: SK-MEL-5 melanoma
SK-OV-3 ovarian = test system: SK-OV-3 ovarian
SN12C renal = test system: SN12C renal
SNB-19 CNS = test system: SNB-19 CNS
SNB-75 CNS = test system: SNB-75 CNS
SR leukemia = test system: SR leukemia
SW-620 colon = test system: SW-620 colon
T-47D breast = test system: T-47D breast
TK-10 renal = test system: TK-10 renal
U251 CNS = test system: U251 CNS
UACC-257 melanoma = test system: UACC-257 melanoma
UACC-62 melanoma = test system: UACC-62 melanoma
UO-31 renal = test system: UO-31 renal

C/C=C1/CN2CCC34c5ccccc5N5C(=O)C(C6CC78c9ccccc9N9C(=O)C=CC(C%10CC7N6C/C%10=C/C)C98)=CC(C1CC23)C54 (stereo unspecified)
GI50 (786-0 renal): 5.51 µM
TGI (786-0 renal): 11.3 µM and 20.1 µM
GI50 (A498 renal): 10.7 µM
TGI (A498 renal): 16.6 µM and 23.7 µM
GI50 (A549 NSCLC): 14.1 µM
TGI (A549 NSCLC): 18.9 µM and 32.3 µM
GI50 (ACHN renal): 11.7 µM
TGI (ACHN renal): 13.6 µM and 24.3 µM
TGI (BT-549 breast): 16.4 µM and 21.9 µM
TGI (CAKI-1 renal): 21.2 µM and 26.8 µM
GI50 (CCRF-CEM leukemia): 1.6 µM
TGI (CCRF-CEM leukemia): 2.05 µM and 4.39 µM
GI50 (COLO 205 colon): 8.74 µM
TGI (COLO 205 colon): 12.4 µM and 26.6 µM
TGI (DU-145 prostate): 23.4 µM
GI50 (EKVX NSCLC): 12.5 µM
TGI (EKVX NSCLC): 14.5 µM and 26.4 µM
GI50 (HCC-2998 colon): 13.4 µM
TGI (HCC-2998 colon): 12.2 µM and 29.9 µM
GI50 (HCT-116 colon): 2.3 µM
TGI (HCT-116 colon): 12.1 µM and 5.45 µM
GI50 (HCT-15 colon): 2.83 µM
TGI (HCT-15 colon): 14.6 µM and 10.3 µM
GI50 (HL-60(TB) leukemia): 2.7 µM
TGI (HL-60(TB) leukemia): 1.36 µM and 10.2 µM
TGI (HOP-62 NSCLC): 20.5 µM and 23.3 µM
GI50 (HOP-92 NSCLC): 0.466 µM
TGI (HOP-92 NSCLC): 13.6 µM and 6.71 µM
GI50 (HS 578T breast): 16.6 µM
TGI (HS 578T breast): 20.9 µM and 73.2 µM
TGI (HT29 colon): 9.87 µM and 5.4 µM
TGI (IGROV1 ovarian): 18.3 µM
TGI (K-562 leukemia): 50 µM
GI50 (KM12 colon): 2.94 µM
TGI (KM12 colon): 36.8 µM and 12.2 µM
TGI (LOX IMVI melanoma): 26 µM
GI50 (M14 melanoma): 3.81 µM
TGI (M14 melanoma): 11.9 µM and 13.8 µM
TGI (MALME-3M melanoma): 14.5 µM
GI50 (MCF7 breast): 2.9 µM
TGI (MCF7 breast): 8.15 µM and 12 µM
GI50 (MDA-MB-231 breast): 13.4 µM
TGI (MDA-MB-231 breast): 8.36 µM and 29 µM
GI50 (MDA-MB-435): 7.47 µM
TGI (MDA-MB-435): 21.4 µM and 21.7 µM
GI50 (MDA-N): 3.51 µM
TGI (MDA-N): 12.7 µM and 13.3 µM
TGI (MOLT-4 leukemia): 5.56 µM
GI50 (NCI-H226 lung): 24 µM
TGI (NCI-H226 lung): 15 µM and 46 µM
GI50 (NCI-H23 lung): 3.94 µM
TGI (NCI-H23 lung): 13.1 µM and 15.5 µM
GI50 (NCI-H460 lung): 9.87 µM
TGI (NCI-H460 lung): 15.9 µM and 40 µM
GI50 (NCI-H522 lung): 8.97 µM
TGI (NCI-H522 lung): 11 µM and 27.2 µM
GI50 (NCI/ADR-RES ovarian): 2.57 µM
TGI (NCI/ADR-RES ovarian): 50 µM and 10.4 µM
GI50 (OVCAR-3 ovarian): 10.7 µM
TGI (OVCAR-3 ovarian): 16.5 µM and 23.5 µM
TGI (OVCAR-4 ovarian): 32.9 µM and 22.4 µM
GI50 (OVCAR-5 ovarian): 19.3 µM
TGI (OVCAR-5 ovarian): 19.9 µM and 34.6 µM
GI50 (OVCAR-8 ovarian): 2.78 µM
TGI (OVCAR-8 ovarian): 8.57 µM and 10.8 µM
GI50 (PC-3 prostate): 2.45 µM
TGI (PC-3 prostate): 9.38 µM
TGI (RXF 393 renal): 8.57 µM
GI50 (SF-268 CNS): 4.3 µM
TGI (SF-268 CNS): 17.7 µM and 17.2 µM
GI50 (SF-295 CNS): 15.9 µM
TGI (SF-295 CNS): 19.6 µM and 32.7 µM
GI50 (SF-539 CNS): 12 µM
TGI (SF-539 CNS): 3.32 µM and 26.4 µM
GI50 (SK-MEL-2 melanoma): 12.3 µM
TGI (SK-MEL-2 melanoma): 13.5 µM and 25.5 µM
GI50 (SK-MEL-28 melanoma): 10.1 µM
TGI (SK-MEL-28 melanoma): 11.3 µM and 22.7 µM
GI50 (SK-MEL-5 melanoma): 11.9 µM
TGI (SK-MEL-5 melanoma): 12 µM and 25.1 µM
GI50 (SK-OV-3 ovarian): 15.3 µM
TGI (SK-OV-3 ovarian): 19.1 µM and 29.7 µM
GI50 (SN12C renal): 11.9 µM
TGI (SN12C renal): 14.5 µM and 26.8 µM
GI50 (SNB-19 CNS): 14.8 µM
TGI (SNB-19 CNS): 15.2 µM and 30 µM
TGI (SNB-75 CNS): 14.7 µM
TGI (SR leukemia): 50 µM
GI50 (SW-620 colon): 3.32 µM
TGI (SW-620 colon): 5.45 µM and 11.8 µM
TGI (T-47D breast): 33.6 µM
GI50 (TK-10 renal): 22 µM
TGI (TK-10 renal): 14.4 µM and 40.7 µM
GI50 (U251 CNS): 4.66 µM
TGI (U251 CNS): 12.1 µM and 17.3 µM
GI50 (UACC-257 melanoma): 2.93 µM
TGI (UACC-257 melanoma): 12.2 µM and 9.24 µM
GI50 (UACC-62 melanoma): 10.9 µM
TGI (UACC-62 melanoma): 14.4 µM and 23.6 µM
GI50 (UO-31 renal): 5.87 µM
TGI (UO-31 renal): 9.81 µM and 20.2 µM
